According to publication PMC9147790, “Synthesis of Coumarin Derivatives: A New Class of Coumarin-Based G Protein-Coupled Receptor Activators and Inhibitors” (Polymers, 2022):
Where two headings read alike, the source gives them in different places.

Assays:
[1] = test system: mouse GPCRs; test: DAS-ELISA evaluation of coumarin derivatives on GPCRs (inhibition/activation); assay type: biochemical; settings: for IC50: concentration achieving 50% inhibition of the GPCRs' standard at 10 ng/L; for IC50 / EC50: mean of two independent experiments ± SD; for EC50: concentration achieving 50% activation of the GPCRs' standard at 10 ng/L; for IC50(nM) (% INHIBITION): % inhibition (inhibition rate): value in parentheses beside the > IC50 bound, daphnetin: at 10 ng/L; for EC50(nM) (% Activation): % Activation: value in parentheses beside the > EC50 bound; for GPCR activation potency (in words) / GPCRs-inhibitory activity (in words): DAS-ELISA
Method: All chemicals and reagents used in the study were commercially available and used as received. Thin-layer chromatography (TLC) and column chromatography (300–400 mesh) were achieved using instruments from Qingdao Makall Group Co., Ltd. (Qingdao, China). ^1H NMR and ^13C NMR spectra were recorded on a Bruker DRX-500 (^1H/^13C, 500 MHz/125 MHz) spectrometer (Bruker, Bremerhaven, Germany) or a JEOL 400YH (^1H/^13C, 400 MHz/100 MHz) and chemical shifts were given in δ with the TMS as an internal reference. The ESI-MS spectroscopy was measured on an Advantage Max LCQ Thermo-Finnigan mass spectrometer. The ELISA kit was purchased from Shanghai Fusheng Industry Co., Ltd. (Shanghai, China), and the standard in the kit was Class B GPCRs.
All the synthesized coumarin derivatives were dissolved in 500 μL of DMSO, and then diluted to 1 mL by distilled water to get 1 mg/mL of stock solution. Finally, the stock solution was diluted to 1000 μg/L, 10 μg/L, 0.1 μg/L, and 0.001 μg/L in turn and stored in a refrigerator at 4 ℃ for reserve.
The inhibitory/activation activities of all of the synthesized coumarin derivatives on GPCRs were evaluated through incubation using mouse GPCRs provided by the ELISA kit (Shanghai Fusheng Industrial Co., Ltd. Shanghai, China). Other components of the kit included a water solution (30 times concentrated), a HRP conjunction reagent, a sample diluent, a standard diluent, standard, a chromogenic reagent A, a chromogenic reagent B, and a stop solution.
The 15 μL of stock solution and 15 μL of diluted standard solution were thoroughly mixed and incubated at 37 ℃ for 10 mins to prepare a reaction solution. The assay was conducted according to the kit protocol, that is, by adding the 25 μL of reaction solution to a 96-well enzyme-labeled plate containing solid phase anti-GPCRs antibodies. Then the plate was incubated for 30 mins at 37 ℃. Then, 25 μL of Chromogener A and 25 μL of Chromogener B were then added to react. Finally, 25 μL of the termination solution was added to each well to terminate the reaction and the mixture was fully mixed. Derivatives were tested in four different concentrations: 10 ng/L, 1 ng/L, […], and 10 μg/L. A diluent was prepared, dissolved and diluted with the other components of the kit according to the instructions in the kit, and a termination solution was added to the reaction. Then, the OD value was obtained by a microplate reader in 15 mins. All the derivatives were set into two independent experimental groups, and the inhibition of GCPRs, which was expressed as a percentage, was based on these groups.
Inhibition rate = [OD(positive) − OD(test compound)]/[OD(positive) − OD(blank)] ∗ 100%.
IC50/EC50 were obtained from Modified Karber formula [66] as the following: lgρ=Xm−IP−3−Pm−Pn/4
ρ: Concentration of compounds; Xm: Maximum dose; I = (Minimum inhibition rate)/Adjacent dose.
P: Sum of inhibition rates; Pm: Maximum inhibition rate; Pn: Minimum inhibition rate.
All values are the mean of two independent experiments ± SD.

[2] = test system: mouse GPCRs; set-up: method as in PMID 33142412; settings: earlier work shown in Figure 2; cited from earlier work

“4-Benzyl-7-ethoxy-4-methyl-2H-chromen-2-one [Derivative 23]” showed an IC50 [1] of 0.76 ± 0.7 nM.

Molecule `Cc1cc(=O)oc2c(O)c(O)ccc12` [4a, reference compound] has an EC50 [1] of 2.65 ± 0.25 nM.

For `O=c1ccc2ccc(O)c(O)c2o1` [Daphnetin, daphnetin, reference compound], the EC50 [2] is given as > 10 nM, the “Inhibition rate (in Figure 2)” value [2] is given as 49.43% and the IC50 [1] is given as > 10 nM. The “IC50(nM) (% INHIBITION): % inhibition (inhibition rate)” value [1] was 49.43%.

In the case of `O=c1cc(-c2ccc(F)cc2)c2ccc(O)c(O)c2o1` [Derivative 1, 4-(4-Fluorophenyl)-7,8-dihydroxy-2 H-chromen-2-one], the EC50 [1] is reported as 0.56 ± 0.02 nM.

In the case of `O=c1cc(C(F)F)c2ccc(O)c(O)c2o1` [Derivative 2, 4-(Difluoromethyl)-7,8-dihydroxy-2H-chromen-2-one], the EC50 [1] is reported as > 43.8 nM and the “EC50(nM) (% Activation): % Activation” value [1] is reported as 39.82%.

With `O=c1cc(-c2ccccc2)c2ccc(O)c(O)c2o1` [Derivative 3, 7,8-Dihydroxy-4-phenyl-2H-chromen-2-one] the EC50 [1] was > 43.8 nM and the “EC50(nM) (% Activation): % Activation” value [1] was 35.75%.

With `CCc1cc(=O)oc2c(O)c(O)ccc12` [Derivative 4, 4-Ethyl-7,8-dihydroxy-2H-chromen-2-one] the “GPCR activation potency (in words)” value [1] was “completely lost their GPCRs-activation potency” and the IC50 [1] was 0.15 ± 0.01 nM.

In the case of `CCCc1cc(=O)oc2c(O)c(O)ccc12` [Derivative 5, 7,8-Dihydroxy-4-propyl-2H-chromen-2-one], the “GPCR activation potency (in words)” value [1] is reported as “completely lost their GPCRs-activation potency” and the IC50 [1] is reported as 3.77 ± 0.58 nM.

With `CC(=O)Oc1ccc2c(CCl)cc(=O)oc2c1OC(C)=O` [Derivative 7, 4-(Chloromethyl)-2-oxo-2H-chromene-7,8-diyl diacetate] the “GPCR activation potency (in words)” value [1] was “no GPCR activation potency” and the IC50 [1] was 0.02 ± 0.01 nM.

For `CCC(=O)Oc1ccc2c(CCl)cc(=O)oc2c1OC(=O)CC` [Derivative 8, 4-(Chloromethyl)-2-oxo-2H-chromene-7,8-diyl dipropionate], the “GPCR activation potency (in words)” value [1] was “no GPCR activation potency” and the IC50 [1] was 6.86 ± 0.04 nM.

With `Cc1cc(=O)oc2cc(O)ccc12` [Derivative 9, 7-Hydroxy-4-methyl-2H-chromen-2-one] the “GPCRs-inhibitory activity (in words)” value [1] was “no GPCRs-inhibitory activity”, the EC50 [1] was 1.25 ± 0.89 nM and the IC50 [1] was 1.25 nM.

For `COc1cc(=O)oc2cc(O)ccc12` [Derivative 10, 7-Hydroxy-4-methoxy-2H-chromen-2-one], the IC50 [1] was > 48.5 nM and the “IC50(nM) (% INHIBITION): % inhibition (inhibition rate)” value [1] was 33.58%.

With `CCc1c(C)c2ccc(O)cc2oc1=O` [Derivative 11, 3-Ethyl-7-hydroxy-4-methyl-2H-chromen-2-one] the EC50 [1] was 1.28 ± 1.07 nM.

With `Cc1c(C)c2ccc(O)cc2oc1=O` [Derivative 12, 7-Hydroxy-3,4-dimethyl-2H-chromen-2-one] the EC50 [1] was 1.07 ± 0.33 nM.

With `O=c1cc(C(F)(F)F)c2ccc(O)cc2o1` [Derivative 13, 7-Hydroxy-4-(trifluoromethyl)-2H-chromen-2-one] the IC50 [1] was 7.75 ± 7.23 nM.

`Cc1c(Cl)c(=O)oc2cc(O)ccc12` [Derivative 14, 3-Chloro-7-hydroxy-4-methyl-2H-chromen-2-one] gave an EC50 [1] of 0.03 ± 0.02 nM.

In the case of `Cc1c(Cc2ccccc2)c(=O)oc2cc(O)ccc12` [Derivative 15, 3-Benzyl-7-hydroxy-4-methyl-2H-chromen-2-one], the EC50 [1] is reported as 3.6 ± 0.11 nM and the IC50 [1] is reported as 3.6 nM.

`Cc1c(F)c(=O)oc2cc(O)ccc12` [Derivative 16, 3-Fluoro-7-hydroxy-4-methyl-2H-chromen-2-one] gave an EC50 [1] of 0.24 ± 0.21 nM.

With `Cc1c(C#N)c(=O)oc2cc(O)ccc12` [Derivative 17, 7-Hydroxy-4-methyl-2-oxo-2H-chromene-3-carbonitrile] the EC50 [1] was 0.03 ± 0.02 nM.

With `CCc1cc(=O)oc2cc(O)ccc12` [Derivative 18, 4-Ethyl-7-hydroxy-2H-chromen-2-one] the “GPCRs-inhibitory activity (in words)” value [1] was “no GPCRs-inhibitory activity” and the EC50 [1] was 0.03 ± 0.01 nM.

With `O=c1cc(CCl)c2ccc(O)cc2o1` [Derivative 19, 4-(Chloromethyl)-7-hydroxy-2H-chromen-2-one] the “GPCRs-inhibitory activity (in words)” value [1] was “no GPCRs-inhibitory activity” and the EC50 [1] was 4.22 ± 3.49 nM.

In the case of `O=c1cc(-c2ccccc2)c2ccc(O)cc2o1` [Derivative 20, 7-Hydroxy-4-phenyl-2H-chromen-2-one], the EC50 [1] is reported as > 42 nM and the “EC50(nM) (% Activation): % Activation” value [1] is reported as 34.41%.

Work on `Cc1cc(=O)oc2cc(Oc3ccnc(Cl)n3)ccc12` [Derivative 21, 7–((2–chloropyrimidin–4–yl)oxy)–4–methyl–2H–chromen–2–one] yielded an EC50 [1] of 0.02 ± 0.01 nM and an IC50 [1] of 0.02 nM.

With `COc1ccc2c(C)c(Cc3ccccc3)c(=O)oc2c1` [Derivative 22, 3-Benzyl-7-methoxy-4-methyl-2H-chromen-2-one] the IC50 [1] was 9.67 ± 2.59 nM.

With `CC(=O)Oc1ccc2c(C)c(Cc3ccccc3)c(=O)oc2c1` [Derivative 24, 3-Benzyl-4-methyl-2-oxo-2H-chromen-7-yl acetate] the EC50 [1] was > 35.7 nM and the “EC50(nM) (% Activation): % Activation” value [1] was 32.82%.

`CCC(=O)Oc1ccc2c(C)c(Cc3ccccc3)c(=O)oc2c1` [Derivative 25, 3-Benzyl-4-methyl-2-oxo-2H-chromen-7-yl propionate] showed an EC50 [1] of 12 ± 9.47 nM.
